Assay results reported in PMC10020958, “2-(4-Fluorophenyl)-1H-benzo[d]imidazole as a Promising Template for the Development of Metabolically Robust, α1β2γ2GABA-A Receptor-Positive Allosteric Modulators” (ACS Chemical Neuroscience, 2023).
Values after ≈ are worked out from the molar mass of the structure shown.

Columns and labels:
[1] = Thermodynamic solubility in phosphate buffer pH = 7.4; type: physicochemical; conditions: phosphate buffer (Dulbecco's phosphate-buffered saline), aqueous buffer, thermodynamic from solid, phosphate buffer pH = 7.4, 20 °C
Protocol: Quantitative HPLC analyses were performed on a Waters Alliance e2695 Separations Module (Waters, Milford, CT, USA) with a detector 2998 Photodiode Array (PDA) detector (Waters, Milford, CT, USA) and the Chromolithe SpeedROD RP-18e 50–4.6 mm column (Merck, KGaA, Darmstadt, Germany). The column was kept at 30 °C. The conditions applied are as follows: eluent A (water/0.1% formic acid), eluent B (MeCN/0.1% formic acid), a flow rate of ,5 mL/min, a gradient of 0–100% B over 3 min, and an injection volume of 10 μL. Each sample was injected in triplicate. […] Standard solutions of the tested compounds and the reference compound were prepared in methanol at a concentration of 1 mg/mL. […] Next, 2 mg of the compound tested was dissolved in 1 mL of Dulbecco’s phosphate-buffered saline (DPBS), and the mixture was constantly agitated at 20 °C for 24 h in a thermoshaker. After that time, the mixtures were filtered through a cellulose acetate syringe filter (pore size 0.22 μm) and transferred to a chromatographic vial and analyzed using HPLC. For quantification, areas under the peaks of the investigated compounds on DAD chromatograms were used. Solubility was determined using the calibration curves.

[2] = in vitro; conditions: human; for remaining at 2 h, 50 μM: % remaining (parent compound)
Protocol: Given that our goal was to obtain metabolically stable scaffolds, we selected 9 and 23 as representatives of each series for metabolic stability studies using human liver microsomes (HLMs). In parallel, we interrogated the quality of 1H-benzo[d]imidazole derivatives by confronting them head-to-head with the comparator drug alpidem.
The in vitro evaluation of the metabolic stability of the selected compound was performed using human liver microsomes (HLMs) (Sigma-Aldrich, St. Louis, MO, USA) as described previously.[25] The reaction mixture contained 50 μM of tested molecules HLMs (1 mg/mL) in 10 mM tris–HCl buffer. Following 5 min of preincubation, 50 μL of the NADPH Regeneration System (Promega, Madison, WI, USA) was added to induce the reaction. Next, the resulting reaction mixture was incubated at 37 °C for 120 min. The reaction was quenched with the addition of 200 μL of cold extra pure methanol and then centrifuged at 14,000 rpm for 15 min. The resulting supernatant was analyzed using an LC/MS Waters ACQUITY TQD system (Waters, Milford, USA).

[3] = molecular target: GABA-A receptor (benzodiazepine site, α1/γ2 interface); assay: Radioligand binding assay for the GABA-A receptor ([3H]-flunitrazepam displacement, rat brain homogenate); conditions: pKi = -log Ki, n.a. = no affinity
[4] = test system: HepG2 human hepatoma cells; assay: Hepatotoxicity assay: mitochondrial membrane potential (JC-1 probe); type: cell-based; conditions: 100 μM, 24 h treatment
Protocol: (§1) Given that drug-induced liver injury (DILI) is the leading cause of the termination of potential drug candidates,[21],[22] two of the main molecules 9 and 23 were further assayed in HepG2 human hepatoma cells to assess their potential risk of toxicity.[23] The hepatotoxicity of the compounds tested was evaluated using two methods: cell viability (Figure 8A,B) and mitochondrial membrane potential assay (Figure 8C).
(§2) Figure 8 Hepatotoxicity assays for selected lead molecules. Cell viability (A) was measured using the PrestoBlue reagent, cell membrane damage (B) was assessed using the ToxiLight bioassay, and mitochondrial membrane potential (C) was assessed using a JC-1 probe. Assays performed after 24 h treatment with tested compounds and a reference alpidem. Results are presented as mean % of untreated controls ± S.D. (n = 3). Differences among groups were evaluated by one-way ANOVA followed by post-hoc analysis (Dunnett’s multiple comparison tests) and were considered statistically significant if p < 0.05 (****p < 0.0001, ***p < 0.001, **p < 0.01, and *p < 0.05). […]
(§3) Cell viability was measured using the PrestoBlue reagent (Thermo Fisher). […] Metabolically active cells are capable of reducing the PrestoBlue reagent, with the colorimetric changes used as an indicator to quantify the viability of cells in culture. This change can be determined by measuring the fluorescence. […] After 30 min of incubation at 37 °C, the fluorescence intensity (EX 530; EM 580 nm) was measured by using a multifunction plate reader (POLARstar Omega, BMG Labtech, Germany). Viability values were calculated as a percentage of live cells with respect to the control sample. Cell membrane damage was measured using the bioluminescent ToxiLight bioassay (Lonza). It quantitatively measures the release of adenylate kinase (AK) from the membranes of damaged cells. […] The enzyme actively phosphorylates ADP, and the resultant ATP is then measured using the bioluminescent firefly luciferase reaction with the ToxiLight reagent. […]

[5] = test system: HepG2 human hepatoma cells; assay: Hepatotoxicity assay: cell viability (PrestoBlue) and cell membrane damage (ToxiLight); type: cell-based; conditions: 24 h treatment; for cytotoxic effect in HepG2 cells: concentrations up to 50 μM
Protocol: as §1, §2, §3

[6] = molecular target: T1, α1β2γ2-GABA-A receptors stably expressed in HEK293 cells (Homo sapiens, UniProt P14867+P18507); assay: Electrophysiological studies, automated patch clamp (QPatch16X), positive allosteric modulation of GABA-induced Cl- currents; type: cell-based; conditions: compound 1 μM co-applied with 10 μM GABA; GABA alone = 100%; mean ± SEM
T1 construct: expressed in transfected cells
Protocol: Given that ligands binding within the α1/γ2 interface act as PAMs, we selected the most promising 1H-benzo[d]imidazoles (9, 15, 16, 23, and 29) for electrophysiological studies using automated patch clamp recordings (QPatch16X, Sophion). We expected that 1H-benzo[d]imidazoles would potentiate GABA-induced Cl^– currents rather than inducing ion passage alone.
Electrophysiology studies were performed using the QPatch16X automatic patch clamp platform (Sophion Biosciences) and HEK293 cells, stably expressing the α1β2γ2 subunits of the human GABA-A receptor. Prior to the assay recordings, the cells were transferred from the culture flask through a TrypLE Express solution (LifeTechnologies) and resuspended in serum-free media. The cells were placed in the lidless microtube, located onboard the automated electrophysiology instrument. The cells were then automatically relocated to a built-in centrifuge, spun down, and washed in Ringer’s extracellular solution. The cells were transferred to the pipetting wells of a single-use 16-channel planar patch chip plate (QPlate 16X), and gigaseals were formed upon implementation of a combined suction/voltage protocol. Subsequent suction induced whole-cell configuration. The chloride currents passed via the GABA-A receptor were recorded for 7 s after single addition of a tested molecule. Through whole-cell recording, the holding potential was set to −90 mV. The assay was performed at room temperature. The extracellular solution was composed of the following ingredients: consisted of 2 mM […], 145 mM NaCl, 10 mM HEPES, CaCl2, 1 mM MgCl2, 10 mM glucose (pH 7.4, 300 mOsm), and intracellular solution contained 140 mM CsF, 1 mM EGTA, 5 mM CsOH, 10 mM HEPES, and 20 mMNaCl (pH 7.2, 320 mOsm). The screening assays were established in the instrument software by sequential application of 10 μM GABA (reference agonist AG1), 1 μM examined molecule compounds, and compounds co-administered with 10 μM GABA (T2); second addition of 10 μM GABA (AG2); 10 μM bicuculline (reference antagonist) along with 10 μM GABA (ATG). The intermission among the addition of particular molecules was 60 s. In a typical procedure, 5 μL of ligand was added to the cells, followed by 3 s of washout with an extracellular solution (two times […]). For the allosteric modulator/antagonist mode, the cells were preincubated with the tested compound alone for 50 s, followed by the addition of the reference agonist. The data obtained were processed using QPatch Assay Software (v5.0, Sophion Biosciences) and are represented as the mean of at least three independent experiments performed on separate cells. The validation criteria for a single test were current amplitude evoked by adding GABA greater than 500 pA and a change between cells’ response to GABA applications (AG1 and AG2) not greater than 25%. The relative compound efficiency was analyzed as the baseline-corrected ratio of maximal current amplitudes induced by the addition of tested compounds and reference agonist (T1-ATG/AG1-ATG or T2-ATG/AG1-ATG). The obtained raw current recordings were normalized and represented as % of the current amplitude induced by a reference agonist (GABA = 100%) using the QPatch Assay Software (v5.0, Sophion Biosciences).[24]

T1 sequence (P14867 28-456): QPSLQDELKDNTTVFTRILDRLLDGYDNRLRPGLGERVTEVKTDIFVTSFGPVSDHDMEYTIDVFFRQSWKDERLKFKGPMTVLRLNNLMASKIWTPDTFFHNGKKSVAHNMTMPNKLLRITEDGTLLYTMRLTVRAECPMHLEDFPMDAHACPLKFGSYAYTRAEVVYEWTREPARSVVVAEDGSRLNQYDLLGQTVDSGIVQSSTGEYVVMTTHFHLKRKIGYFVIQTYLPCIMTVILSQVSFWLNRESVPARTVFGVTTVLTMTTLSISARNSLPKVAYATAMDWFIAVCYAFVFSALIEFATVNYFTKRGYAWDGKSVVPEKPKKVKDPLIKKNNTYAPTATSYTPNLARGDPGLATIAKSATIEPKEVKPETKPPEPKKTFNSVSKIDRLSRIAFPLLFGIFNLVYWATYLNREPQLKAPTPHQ
T1 sequence (P47870 25-512 partner limits assumed): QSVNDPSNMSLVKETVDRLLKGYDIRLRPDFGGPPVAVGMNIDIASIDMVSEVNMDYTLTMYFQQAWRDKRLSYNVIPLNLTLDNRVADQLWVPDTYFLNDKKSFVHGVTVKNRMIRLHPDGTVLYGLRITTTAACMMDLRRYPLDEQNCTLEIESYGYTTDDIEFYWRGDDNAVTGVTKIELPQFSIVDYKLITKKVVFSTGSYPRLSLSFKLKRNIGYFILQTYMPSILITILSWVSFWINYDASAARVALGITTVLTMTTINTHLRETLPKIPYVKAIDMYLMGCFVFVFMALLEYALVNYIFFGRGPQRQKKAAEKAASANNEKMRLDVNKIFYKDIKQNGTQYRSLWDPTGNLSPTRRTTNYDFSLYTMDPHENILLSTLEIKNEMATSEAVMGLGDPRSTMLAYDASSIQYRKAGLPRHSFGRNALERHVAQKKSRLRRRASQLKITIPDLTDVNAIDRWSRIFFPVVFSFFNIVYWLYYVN
T1 sequence (P18507 40-475): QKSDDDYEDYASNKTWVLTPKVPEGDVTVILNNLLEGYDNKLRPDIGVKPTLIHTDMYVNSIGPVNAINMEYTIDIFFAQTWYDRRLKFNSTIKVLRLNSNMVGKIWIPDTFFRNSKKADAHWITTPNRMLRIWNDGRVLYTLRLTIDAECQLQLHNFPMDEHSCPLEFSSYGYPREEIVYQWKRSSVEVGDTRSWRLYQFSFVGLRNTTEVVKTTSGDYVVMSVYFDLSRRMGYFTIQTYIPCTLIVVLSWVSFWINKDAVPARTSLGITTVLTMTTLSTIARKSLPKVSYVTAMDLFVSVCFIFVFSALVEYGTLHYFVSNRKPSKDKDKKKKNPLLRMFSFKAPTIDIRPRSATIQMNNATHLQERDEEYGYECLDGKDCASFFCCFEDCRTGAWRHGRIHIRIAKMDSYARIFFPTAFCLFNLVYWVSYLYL

Compound | solubility at 24 h [1] [µg/mL] | % remaining (parent compound) ([2]; microsomes, 2 h, 50 μM) [%] | remaining at 2 h, 50 μM ([2]; microsomes) [%] | pKi GABA-A [3] | mitochondrial membrane potential (MMP) of HepG2 cells [4] | cytotoxic effect in HepG2 cells [5] | % of 10 μM GABA response [6] | formation of hydroxylated metabolite (M1) ([2]; 120 min, 50 μM) [%] | hepatotoxicity in HepG2 cells ([5]; at 100 and 50 μM)
Cc1ccc2nc(-c3ccc(F)cc3)n(CC(=O)N3CCCC3)c2c1 [Compound 9, 2-(2-(4-Fluorophenyl)-6-methyl-1H-benzo[d]imidazole-1-yl)-1-(pyrrolidin-1-yl)ethan-1-one] | 50 ± 0.54 (≈ 148 µM) | 90.12 | 90 | 5.5 | did not observe mitochondrial membrane potential (MMP) attenuation | did not induce any significant cytotoxic effect | 172 ± 12,5% |  | 
NC(=O)c1cccc(NC(=O)Cn2c(-c3ccc(F)cc3)nc3ccccc32)c1 [Compound 23, 3-(2-(2-(4-Fluorophenyl)-1H-benzo[d]imidazole-1-yl)acetamido)benzamide] | 74 ± 0.81 (≈ 191 µM) |  | 89.1 | 6.05 | did not observe mitochondrial membrane potential (MMP) attenuation | did not induce any significant cytotoxic effect | 132 ± 13,2% | 10.87 | 
CCCN(CCC)C(=O)Cc1c(-c2ccc(Cl)cc2)nc2ccc(Cl)cn12 [alpidem, reference compound] |  |  | 38.6 |  | induced mitochondrial dysfunction |  |  |  | noticeable hepatotoxicity
